One test has as its target human DGKζ (Homo sapiens (Human), UniProt Q13574). The test is described as follows: DGKζ LIPGLO assay (extruded liposome substrate, ADP-Glo luminescence). Conditions: liposome (LIPGLO) assay; read-out: DGK zeta (liposome assay) IC50. Type of test: biochemical. On the technique in general: In ADP-Glo the light output rises with the ADP produced.
The target in another test is human DGKα (Homo sapiens (Human), UniProt P23743). The test is described as follows: DGKα ADPGLO assay (detergent/lipid micelle substrate). The format is biochemical. Conditions: ADPGLO assay; read-out: DGK alpha ADPGLO IC50. The procedure:
DGK Alpha ADPGLO (Truncated) IC50 (uM)
The detergent/lipid micelle was prepared by combining 15 g phosphatidylserine (Avanti 840035P) and 1 g diacylglycerol (8008110) and dissolving into 150 mL chloroform in a 2 L round bottom flask. Chloroform was removed under high vacuum by rotary evaporation. […] The lipid/detergent solution was split into 5 mL aliquots and stored at −80° C.

The next test has as its system whole blood (pERK). Briefly: pERK Whole Blood. Type of test: cell-based.
Test [1] concerns human venous whole blood (IFN-γ). Briefly: Human whole blood IFN-γ assay. Type of test: cell-based. Particulars: human whole blood, anti-CD3 plus anti-CD28 stimulation, 24 hours; read-out: IFN-γ Whole Blood EC50. The procedure:
Human venous whole blood (22.5 μL per well), obtained from healthy donors, was pre-treated with compounds for one hour at 37° C. in a humidified 95% air/5% CO2 incubator. The blood was stimulated with 2.5 μL anti-human CD3 and anti-CD28 mAb at a final concentration of 1 μg/mL each for 24 hours at 37° C. IFN-γ in the supernatants was measured using AlphLISA kit (Cat #AL217).

Experimental findings from patent US11584747B2, “Substituted pyridopyrimidinonyl compounds useful as T cell activators” (BRISTOL-MYERS SQUIBB COMPANY, priority 2019, dated 2023) are described below.

A word on the IC50: it is the concentration that inhibits the measured activity by half. As a reminder, the EC50 is the concentration needed to bring the measured effect to its halfway point.

Chain of human DGKα (P23743 whole entry, looked up, the tested form may be a part): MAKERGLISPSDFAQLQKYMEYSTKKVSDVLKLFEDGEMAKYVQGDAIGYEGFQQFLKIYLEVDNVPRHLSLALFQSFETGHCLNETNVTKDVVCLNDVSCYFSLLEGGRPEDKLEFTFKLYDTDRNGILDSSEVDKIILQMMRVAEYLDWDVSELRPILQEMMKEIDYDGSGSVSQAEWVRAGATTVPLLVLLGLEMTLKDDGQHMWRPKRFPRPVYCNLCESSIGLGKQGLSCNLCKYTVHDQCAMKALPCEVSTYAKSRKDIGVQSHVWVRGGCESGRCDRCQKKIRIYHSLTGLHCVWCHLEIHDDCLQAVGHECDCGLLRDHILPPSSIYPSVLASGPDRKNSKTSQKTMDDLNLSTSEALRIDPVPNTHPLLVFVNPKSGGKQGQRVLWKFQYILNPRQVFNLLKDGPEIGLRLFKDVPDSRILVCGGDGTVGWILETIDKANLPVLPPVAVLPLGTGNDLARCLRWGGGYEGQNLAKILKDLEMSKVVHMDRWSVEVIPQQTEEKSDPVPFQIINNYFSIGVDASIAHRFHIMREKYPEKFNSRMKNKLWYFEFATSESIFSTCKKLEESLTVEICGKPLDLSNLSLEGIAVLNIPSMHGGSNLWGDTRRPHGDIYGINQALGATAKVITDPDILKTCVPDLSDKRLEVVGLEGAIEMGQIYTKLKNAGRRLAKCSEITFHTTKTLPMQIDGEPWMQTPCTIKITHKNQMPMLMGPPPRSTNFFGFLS
Chain of human DGKζ (Q13574 other isoform, or with tags, fused parts or gaps): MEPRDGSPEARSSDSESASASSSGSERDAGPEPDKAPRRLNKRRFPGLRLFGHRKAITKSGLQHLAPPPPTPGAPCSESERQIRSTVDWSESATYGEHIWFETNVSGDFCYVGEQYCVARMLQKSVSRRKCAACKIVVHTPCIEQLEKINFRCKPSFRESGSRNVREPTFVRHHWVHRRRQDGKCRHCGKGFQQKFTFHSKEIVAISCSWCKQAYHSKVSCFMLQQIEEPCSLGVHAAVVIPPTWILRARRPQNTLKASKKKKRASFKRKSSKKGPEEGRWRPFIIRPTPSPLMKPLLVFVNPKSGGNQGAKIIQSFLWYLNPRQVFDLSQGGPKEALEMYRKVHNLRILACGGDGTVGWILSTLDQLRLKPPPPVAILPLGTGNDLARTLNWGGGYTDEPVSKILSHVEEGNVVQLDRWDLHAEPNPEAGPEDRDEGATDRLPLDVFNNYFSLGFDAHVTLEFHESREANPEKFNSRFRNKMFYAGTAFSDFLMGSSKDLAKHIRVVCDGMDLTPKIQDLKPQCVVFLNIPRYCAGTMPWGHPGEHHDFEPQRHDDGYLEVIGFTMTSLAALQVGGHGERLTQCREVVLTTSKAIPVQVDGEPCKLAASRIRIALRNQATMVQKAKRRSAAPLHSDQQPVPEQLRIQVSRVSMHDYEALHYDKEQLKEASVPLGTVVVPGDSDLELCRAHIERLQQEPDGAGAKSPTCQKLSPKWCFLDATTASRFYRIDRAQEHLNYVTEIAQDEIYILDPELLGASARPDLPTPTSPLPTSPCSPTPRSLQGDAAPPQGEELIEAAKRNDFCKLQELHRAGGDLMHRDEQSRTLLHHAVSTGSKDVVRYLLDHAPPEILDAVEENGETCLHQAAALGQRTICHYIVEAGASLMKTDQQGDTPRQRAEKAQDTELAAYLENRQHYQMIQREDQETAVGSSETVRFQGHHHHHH

As to `CCC(c1ccc(OCCC(F)(F)F)cc1)N1C[C@H](C)N(c2nc(=O)n(C)c3ccc(C#N)nc23)C[C@H]1CC` (single isomer, unassigned) [Example 335], the IC50 at human DGKζ stood at 120 nM; at human DGKα, 25 nM. The response in the test on whole blood (pERK) was half-maximal at 140 nM (EC50).

As for `CCC(c1ccc(OCCC(F)(F)F)cc1)N1C[C@H](C)N(c2nc(=O)n(C)c3ccc(C#N)nc23)C[C@H]1CC` (single isomer, unassigned) [Example 336], the IC50 on human DGKζ came out at 1100 nM; at human DGKα, 480 nM. In the test with whole blood (pERK), this compound had an EC50 of 20000 nM.

Regarding `CCC1CN(c2nc(=O)n(C)c3ccc(C#N)nc23)[C@@H](C)CN1C(C)c1ccc(C(F)(F)F)c(CN2CCOCC2)c1` (single isomer, unassigned) [Example 350], the half-inhibitory concentration (IC50) on human DGKζ amounted to 120 nM; on human DGKα it was 180 nM. Also, the EC50 in the test with whole blood (pERK) worked out at 3360 nM.

`CCC1CN(c2nc(=O)n(C)c3ccc(C#N)nc23)[C@@H](C)CN1C(C)c1ccc(C(F)(F)F)c(CN2CCOCC2)c1` (single isomer, unassigned) [Example 351]: the figures for the IC50 on human DGKζ and on human DGKα were 1040 nM and 180 nM, respectively. A half-maximal effect with whole blood (pERK) (EC50) was put at 380 nM.

With `CC[C@@H]1CN(c2nc(=O)n(C)c3ccc(C#N)nc23)[C@@H](C)CN1C(C)c1ccc(C(F)(F)F)c(C#N)c1` (single isomer, unassigned) [Example 356], the concentration for half-maximal inhibition (IC50) on human DGKζ amounted to 440 nM; at human DGKα, 18000 nM. Moreover, the EC50 with whole blood (pERK) was 930 nM.

As to `CC[C@@H]1CN(c2nc(=O)n(C)c3ccc(C#N)nc23)[C@@H](C)CN1C(C)c1ccc(C(F)(F)F)c(C#N)c1` (single isomer, unassigned) [Example 357], the IC50 at human DGKζ stood at 1560 nM; on human DGKα it was 2080 nM. The midpoint of the response with whole blood (pERK), the EC50, lay at 3780 nM.

Take `CCC[C@@H]1CN(c2nc(=O)n(C)c3ccc(C#N)nc23)[C@@H](C)CN1C(C)c1ccc(C(F)(F)F)cc1` (single isomer, unassigned) [Example 395]: the half-maximal inhibitory concentration (IC50) on human DGKα was found to be 490 nM. In the test with whole blood (pERK), this compound displayed an EC50 of 20000 nM.

As to `CCC(c1ccc(C(F)(F)F)cc1)N1C[C@H](C)N(c2nc(=O)n(C)c3ccc(C#N)nc23)C[C@H]1COC` (single isomer, unassigned) [Example 399], the values for the IC50 at human DGKζ and at human DGKα were 700 nM and 160 nM, respectively. For the same compound, the response with whole blood (pERK) was half-maximal at 20000 nM (EC50).

As to `CC(c1ccc(C(F)(F)F)cc1)N1C[C@H](CO)N(c2nc(=O)n(C)c3ccc(C#N)nc23)C[C@H]1C` (single isomer, unassigned) [Example 406], the half-inhibitory concentration (IC50) on human DGKζ amounted to 81100 nM; on human DGKα, 1960 nM. Moreover, in the test on whole blood (pERK), the EC50 is 7130 nM.

As for `CC(c1ccc(C(F)(F)F)cc1)N1C[C@H](CO)N(c2nc(=O)n(C)c3ccc(C#N)nc23)C[C@H]1C` (single isomer, unassigned) [Example 407], the half-inhibitory concentration (IC50) on human DGKζ stood at 31000 nM; on human DGKα, 400 nM. This compound showed an EC50 with whole blood (pERK) of 640 nM.

For `COC[C@H]1CN(C(C)c2ccc(C(F)(F)F)cc2)[C@H](C)CN1c1nc(=O)n(C)c2ccc(C#N)nc12` (single isomer, unassigned) [Example 409], the half-maximal inhibitory concentration (IC50) on human DGKζ was found to be 1080 nM; on human DGKα, 72 nM. Further, a half-maximal response with whole blood (pERK) (EC50) required 20000 nM.

For `CC[C@@H]1CN(c2nc(=O)n(C)c3ccc(C#N)nc23)[C@@H](CO)CN1C(C)c1ccc(C(F)(F)F)cc1` (single isomer, unassigned) [Example 411], the half-maximal inhibitory concentration (IC50) on human DGKζ worked out at 1240 nM; at human DGKα, 820 nM. In the test on whole blood (pERK), this compound returned a half-maximal effective concentration (EC50) of 1890 nM.

As to `CC[C@@H]1CN(c2nc(=O)n(C)c3ccc(C#N)nc23)[C@@H](CO)CN1C(C)c1ccc(C(F)(F)F)cc1` (single isomer, unassigned) [Example 412], the IC50 on human DGKζ worked out at 45000 nM; at human DGKα it was 9670 nM. For the same compound, the 50% effective concentration (EC50) with whole blood (pERK) amounted to 670 nM.

`CC[C@@H]1CN(c2nc(=O)[nH]c3ccc(C#N)nc23)[C@@H](C)CN1C(C)c1ccc(C(F)(F)F)cc1` (single isomer, unassigned) [Example 414]: the IC50 at human DGKζ came to 11300 nM; at human DGKα, 1490 nM. For the same compound, the EC50 with whole blood (pERK) amounted to 160 nM.

In the case of `[2H]C([2H])([2H])n1c(=O)nc(N2C[C@@H](CC)N(C(C)c3ccc(C(F)(F)F)cc3)C[C@@H]2C)c2nc(Cl)ccc21` (single isomer, unassigned) [Example 417], the results for the concentration for half-maximal inhibition (IC50) on human DGKζ and on human DGKα were 520 nM and 170 nM, respectively. For the same compound, the response with whole blood (pERK) was half-maximal at 20000 nM (EC50).

In the case of `[2H]C([2H])([2H])n1c(=O)nc(N2C[C@@H](CC)N(C(C)c3ccc(C(F)(F)F)cc3)C[C@@H]2C)c2nc(Cl)ccc21` (single isomer, unassigned) [Example 418], the half-maximal inhibitory concentration (IC50) was found to be 8710 nM at human DGKζ and 92 nM at human DGKα. Also, the EC50 in the test with whole blood (pERK) came out at 20000 nM.

For the compound `[2H]C([2H])([2H])n1c(=O)nc(N2C[C@@H](CC)N(C(C)c3ccc(C(F)(F)F)cc3)C[C@@H]2C)c2nc(C#N)ccc21` (single isomer, unassigned) [Example 419], the values for the half-maximal inhibitory concentration (IC50) on human DGKζ and on human DGKα were 55 nM and 33 nM, respectively. For the same compound, the concentration giving a half-maximal response (EC50) in the test with whole blood (pERK) turned out to be 20000 nM.

Take `CCC(N1C[C@H](C)N(c2nc(=O)n(C)c3ccc(C#N)nc23)C[C@H]1C)C12CC(C(F)(F)F)(C1)C2` (single isomer, unassigned) [Example 448]: the IC50 was found to be 5140 nM on human DGKζ and 13400 nM at human DGKα. Further, it took 20000 nM to reach a half-maximal effect in the test with whole blood (pERK) (EC50).

Take `CCC(N1C[C@H](C)N(c2nc(=O)n(C)c3ccc(C#N)nc23)C[C@H]1C)C12CC(C(F)(F)F)(C1)C2` (single isomer, unassigned) [Example 449]: the half-inhibitory concentration (IC50) worked out at 4080 nM on human DGKζ and 7410 nM on human DGKα. Besides, the half-maximal effective concentration (EC50) in the test on whole blood (pERK) was determined as 20000 nM.

As for `CCOc1ccc(C(CC)N2C[C@H](C)N(c3nc(=O)n(C)c4ccc(C#N)nc34)C[C@H]2CC)cc1` (stereo partly drawn) [Example 306, 4-((2S,5R)-4-(1-(4-ethoxyphenyl)propyl)-5-ethyl-2-methylpiperazin-1-yl)-1-methyl-2-oxo-1,2-dihydropyrido[3,2-d]pyrimidine-6-carbonitrile], the IC50 at human DGKζ turned out to be 28 nM; on human DGKα it was 11 nM. The compound further showed an EC50 in the test on whole blood (pERK) of 230 nM.

Turning to `CC[C@@H]1CN(c2nc(=O)n(C)c3ccc(C#N)nc23)[C@@H](C)CN1C(c1ccc(OC)cc1)C(C)C` (stereo partly drawn) [Example 313, 4-((2S,5R)-5-ethyl-4-(1-(4-methoxyphenyl)-2-methylpropyl)-2-methylpiperazin-1-yl)-1-methyl-2-oxo-1,2-dihydropyrido[3,2-d]pyrimidine-6-carbonitrile], the IC50 on human DGKζ stood at 650 nM; at human DGKα, 230 nM. Further, the 50% effective concentration (EC50) in the test on whole blood (pERK) was 57 nM.

For the compound `CC[C@@H]1CN(c2nc(=O)n(C)c3ccc(C#N)nc23)[C@@H](C)CN1C(c1ccc(OC)cc1)C(C)C` (stereo partly drawn) [Example 314, 4-((2S,5R)-5-ethyl-4-(1-(4-methoxyphenyl)-2-methylpropyl)-2-methylpiperazin-1-yl)-1-methyl-2-oxo-1,2-dihydropyrido[3,2-d]pyrimidine-6-carbonitrile], the IC50 at human DGKζ came out at 4 nM; on human DGKα, 25 nM. Also, in the test on whole blood (pERK), a half-maximal response (EC50) required 50 nM.

As for `CC[C@@H]1CN(c2nc(=O)n(C)c3ccc(C#N)nc23)[C@@H](C)CN1C(c1ccc(F)cc1)c1cccc(C(F)F)n1` (stereo partly drawn) [Example 315, 4-((2 S,5R)-4-((6-(difluoromethyl)pyridin-2-yl)(4-fluorophenyl)methyl)-5-ethyl-2-methylpiperazin-1-yl)-1-methyl-2-oxo-1,2-dihydropyrido[3,2-d]pyrimidine-6-carbonitrile], the IC50 was determined as 190 nM at human DGKζ and 26 nM at human DGKα. The EC50 with whole blood (pERK) worked out at 270 nM.

In the case of `CCC(c1ccc(C(C)(C)C#N)cc1)N1C[C@H](C)N(c2nc(=O)n(C)c3ccc(C#N)nc23)C[C@H]1CC` (stereo partly drawn) [Example 317, 4-((2S,5R)-4-(1-(4-(2-cyanopropan-2-yl)phenyl)propyl)-5-ethyl-2-methylpiperazin-1-yl)-1-methyl-2-oxo-1,2-dihydropyrido[3,2-d]pyrimidine-6-carbonitrile], the concentration for half-maximal inhibition (IC50) on human DGKζ came out at 26 nM; on human DGKα, 17 nM. The compound further yielded an EC50 in the test with whole blood (pERK) of 180 nM.

On to `CCC(c1ccc(C(C)(C)C#N)cc1)N1C[C@H](C)N(c2nc(=O)n(C)c3ccc(C#N)nc23)C[C@H]1CC` (stereo partly drawn) [Example 318, 4-((2S,5R)-4-(1-(4-(2-cyanopropan-2-yl)phenyl)propyl)-5-ethyl-2-methylpiperazin-1-yl)-1-methyl-2-oxo-1,2-dihydropyrido[3,2-d]pyrimidine-6-carbonitrile], for which the IC50 was 1570 nM on human DGKζ and 620 nM on human DGKα. For the same compound, in the test on whole blood (pERK), the concentration giving a half-maximal response (EC50) is 3070 nM.

As to `CCC(c1ccc(F)c(F)c1)N1C[C@H](C)N(c2nc(=O)n(C)c3ccc(C#N)nc23)C[C@H]1CC` (stereo partly drawn) [Example 319, 4-((2S,5R)-4-(1-(3,4-difluorophenyl)propyl)-5-ethyl-2-methylpiperazin-1-yl)-1-methyl-2-oxo-1,2-dihydropyrido[3,2-d]pyrimidine-6-carbonitrile], the IC50 was found to be 22 nM on human DGKζ and 52 nM on human DGKα. Also, in the test with whole blood (pERK), a half-maximal effect (EC50) was put at 130 nM.

With `CCOc1ccc2c(n1)c(N1C[C@@H](CC)N(C(C)c3ccc(C(F)(F)F)cc3)C[C@@H]1CC)nc(=O)n2C` (stereo partly drawn) [Example 430, 4-((2S,5R)-2,5-diethyl-4-(1-(4-(trifluoromethyl)phenyl)ethyl)piperazin-1-yl)-6-ethoxy-1-methylpyrido[3,2-d]pyrimidin-2(1H)-one], the IC50 at human DGKζ worked out at 125000 nM. The 50% effective concentration (EC50) (in test [1]; in the test on whole blood (pERK)) was 20000 nM in each case.
